We go through two compounds from patent publication US20100173987A1, “ACTIVE AGENT COMBINATIONS WITH INSECTICIDAL AND ACARICIDAL PROPERTIES” (priority 2006, published 2010).

Holding throughout (assay type): in vivo
Data set [1] concerns Frankliniella occidentalis. Nature of the data set: Greenhouse test on bell pepper against Western flower thrips. As to conditions: on 15 open flowers. On the procedure: (§1) In a greenhouse of a size of 4000 m^2 run in accordance with an IPM program (no insecticide used), bell pepper plants of the cultivar “Requena” on perlite substrates are, about 11 weeks after transplanting, tested comparatively against Western flower thrips (Frankliniella occidentalis) using spiromesifen (240 SC) and the non-beneficial-species-sparing standard formetanate (50 SP) at the stated application rates. Two applications are carried out at an interval of 14 days. Application is by knapsack sprayer. A water application rate of 1000 l/ha is applied.
(§2) Evaluations are carried out 7, 14, 21 and 28 days after the first treatment. As a natural enemy (beneficial species) of the Western flower thrips, use is made of Orius laevigalus from the family of the pirate bugs (Anthochoridae). Evaluation is carried out by counting the number of Western flower thrips on 15 open flowers. The number of beneficial species is also scored.

The subject of another data set is Orius laevigalus. Nature of the data set: Greenhouse test on bell pepper: number of beneficial species scored. On the procedure:
as §1, §2

Another data set has as its system Bemisia tabaci. Nature of the data set: Bemisia tabaci test (cotton leaves, spray, mirid bugs added). To be noted: 0.16 ppm, infested cotton leaves sprayed. The procedure:
Solvent: 7 parts by weight of dimethylformamide Emulsifier: 2 parts by weight of alkylaryl polyglycol ether
To produce a suitable preparation of active compound, 1 part by weight of active compound is mixed with the stated amounts of solvent and emulsifier, and the concentrate is diluted with emulsifier-containing water to the desired concentration.
Cotton leaves (Gossypium hirsutum) infested by the whitefly (Bemisia tabacii) are treated by being sprayed with the preparation of active compound at the desired concentration.
After the desired period of time, a defined amount of mirid bugs (Macrolophus caliginosus) is added.
After the desired period of time, the kill of the pest in % is determined. 100% means that all whiteflies have been killed; 0% means that none of the whiteflies have been killed. The determined kill rates are entered into Colby's formula.

Where [2] appears, read: application 0.2 % (50 SP), 7 d after first treatment.
Setting [3] is: application 0.2 % (50 SP), 14 d after first treatment.
The mark [4] stands for this setting: application 0.2 % (50 SP), 21 d after first treatment.
[5] abbreviates: application 0.2 % (50 SP), 28 d after first treatment.
[6] abbreviates: application 0.06 % (240 SC), 14 d after first treatment.
Where [7] appears, read: application 0.06 % (240 SC), 21 d after first treatment.
[8] abbreviates: application 0.06 % (240 SC), 28 d after first treatment.

In the case of `CNC(=O)Oc1cccc(N=CN(C)C)c1` [Formetanate, reference compound], the “Number Frankliniella occidentalis larvae + adults” value in data set [1] (setting [2]) stood at 2; in data set [1] (setting [3]), 3.5; in data set [1] (setting [4]) it was 8; in data set [1] (setting [5]), 18.8. Further, the “Number Orius laevigalus larvae + adults” value in the data set on Orius laevigalus (setting [2]) is reported as 0.3; with Orius laevigalus (setting [3]), 0; in the data set with Orius laevigalus (setting [4]) it was 0.3; in the data set with Orius laevigalus (setting [5]) it was 0.3.
With `Cc1cc(C)c(C2=C(OC(=O)CC(C)(C)C)C3(CCCC3)OC2=O)c(C)c1` [Spiromesifen (Ex. I-b-1), Spiromesifen], the “Kill in % after 14 d” value in the data set with Bemisia tabaci is recorded as 1.25%. Also, the “Number Frankliniella occidentalis larvae + adults” value in data set [1] (application 0.06 % (240 SC), 7 d after first treatment, bell pepper greenhouse) is listed as 16.7; in data set [1] (setting [6]), 13.7; in data set [1] (setting [7]), 9; in data set [1] (setting [8]) it was 13.7. The “Number Orius laevigalus larvae + adults” value in the data set on Orius laevigalus (application 0.06 % (240 SC), 7 d after first treatment) stood at 2.5; in the data set on Orius laevigalus (setting [6]), 3.7; with Orius laevigalus (setting [7]), 7.3; in the data set on Orius laevigalus (setting [8]), 9.
